The values below come from ChEMBL document CHEMBL1681742, “Novel second generation analogs of eribulin. Part I: Compounds containing a lipophilic C32 side chain overcome P-glycoprotein susceptibility” (Bioorg Med Chem Lett, 2011).

Data set [1] in a line: Antiproliferative activity against human MES-SA cells assessed as growth inhibition. It counts as functional, cell-based.
The nature of data set [2]: Antiproliferative activity against P-gp overexpressing human MES-SA/Dx5-Rx1 cells assessed as growth inhibition. Format: functional.
The next data set deals with DLD-1. The data set can be described thus: Antiproliferative activity against human DLD1 cells assessed as growth inhibition. It counts as functional, cell-based.
A further data set concerns HCT-15. The data set can be described thus: Antiproliferative activity against human HCT15 cells assessed as growth inhibition. It counts as functional, cell-based.
Data set [3] in a line: Cytotoxicity against human IMR90 cells up to 1 uM. To be noted: imr-90. It counts as cell-based.
The nature of data set [4]: Fold resistance, ratio of IC50 for antiproliferative activity for P-gp overexpressing human MES-SA/Dx5-Rx1cells to IC50 for antiproliferative activity for human MES-SA cells.

As a reminder, the IC50 is the concentration needed to halve the response being measured.

Some results are limits rather than exact numbers.

On to `C=C1C[C@@H]2CC[C@@]34C[C@H]5O[C@H]6[C@@H](O3)[C@H]3O[C@H](CC[C@@H]3O[C@H]6[C@H]5O4)CC(=O)C[C@@H]3[C@@H](OC)[C@@H](CC(=O)OC)O[C@H]3C[C@H]3O[C@@H](CC[C@@H]1O2)C[C@@H](C)C3=C`, for which the IC50 in data set [1] worked out at 0.35 nM; in data set [2] it was 1.48 nM; with DLD-1 it was 0.83 nM; with HCT-15, 0.44 nM. Moreover, the Activity entry in data set [3] is “Non-toxic”. Moreover, in data set [4], the “Ratio IC50” value worked out at 4.23.

Regarding `C=C1C[C@@H]2CC[C@@]34C[C@H]5O[C@H]6[C@@H](O3)[C@H]3O[C@H](CC[C@@H]3O[C@H]6[C@H]5O4)CC(=O)C[C@@H]3[C@@H](OC)[C@@H](C[C@@H](CN=[N+]=[N-])OCc4ccccc4)O[C@H]3C[C@H]3O[C@@H](CC[C@@H]1O2)C[C@@H](C)C3=C`, the IC50 in data set [1] came out at 4.83 nM; in data set [2], 36.7 nM; in the data set on DLD-1 it was 10.6 nM; with HCT-15, 7.08 nM. Also, the Activity result in data set [3] is on record as “Non-toxic”. For the same molecule, the “Ratio IC50” value in data set [4] is 7.6.

For `C=C1C[C@@H]2CC[C@@]34C[C@H]5O[C@H]6[C@@H](O3)[C@H]3O[C@H](CC[C@@H]3O[C@H]6[C@H]5O4)CC(=O)C[C@@H]3[C@@H](OC)[C@@H](C[C@H](O)COCC)O[C@H]3C[C@H]3O[C@@H](CC[C@@H]1O2)C[C@@H](C)C3=C`, the IC50 in data set [1] worked out at 0.2 nM; in data set [2], 2.24 nM; in the data set on DLD-1, 0.27 nM; in the data set with HCT-15, 0.23 nM. Also, the Activity result in data set [3] is reported as “Non-toxic”. In addition, the “Ratio IC50” value in data set [4] is on record as 11.2.

As to `C=C1C[C@@H]2CC[C@@]34C[C@H]5O[C@H]6[C@@H](O3)[C@H]3O[C@H](CC[C@@H]3O[C@H]6[C@H]5O4)CC(=O)C[C@@H]3[C@@H](OC)[C@@H](CC)O[C@H]3C[C@H]3O[C@@H](CC[C@@H]1O2)C[C@@H](C)C3=C`, the IC50 in data set [1] was determined as 1.06 nM; in data set [2], 1.36 nM. Further, in data set [3], the Activity result is given as “Non-toxic”. Besides, in data set [4], the “Ratio IC50” value turned out to be 1.81.

As to `C=C1C[C@@H]2CC[C@@]34C[C@H]5O[C@H]6[C@@H](O3)[C@H]3O[C@H](CC[C@@H]3O[C@H]6[C@H]5O4)CC(=O)C[C@@H]3[C@@H](OC)[C@@H](C[C@H]4COCCO4)O[C@H]3C[C@H]3O[C@@H](CC[C@@H]1O2)C[C@@H](C)C3=C`, the IC50 in data set [1] was 1 nM; in data set [2] it was 23 nM; in the data set with DLD-1 it was 0.88 nM; in the data set with HCT-15, 1.24 nM. Further, the Activity result in data set [3] is “Non-toxic”. Also, the “Ratio IC50” value in data set [4] is on record as 22.96.

As for `C=C1C[C@@H]2CC[C@@]34C[C@H]5O[C@H]6[C@@H](O3)[C@H]3O[C@H](CC[C@@H]3O[C@H]6[C@H]5O4)CC(=O)C[C@@H]3[C@@H](OC)[C@@H](C[C@@H](CN=[N+]=[N-])OC)O[C@H]3C[C@H]3O[C@@H](CC[C@@H]1O2)C[C@@H](C)C3=C`, the IC50 in data set [1] worked out at 0.44 nM; in data set [2], 1.86 nM; in the data set with DLD-1, 0.78 nM; in the data set on HCT-15 it was 0.48 nM. The Activity entry in data set [3] is recorded as “Non-toxic”. The “Ratio IC50” value in data set [4] was determined as 4.19.

As for `COc1cccc2c1C(=O)c1c(O)c3c(c(O)c1C2=O)C[C@@](O)(C(=O)CO)C[C@@H]3O[C@H]1C[C@H](N)[C@H](O)[C@H](C)O1` [DOXORUBICIN], the values for the IC50 (in data set [1]; in data set [2]; with HCT-15) were 26.4 nM, 2700 nM and 154 nM, respectively. Also, the Activity entry in data set [3] is “Non-toxic”. In addition, in data set [4], the “Ratio IC50” value is listed as 134.

Turning to `C=C1C[C@@H]2CC[C@@]34C[C@H]5O[C@H]6[C@@H](O3)[C@H]3O[C@H](CC[C@@H]3O[C@H]6[C@H]5O4)CC(=O)C[C@@H]3[C@@H](OC)[C@@H](CCOC)O[C@H]3C[C@H]3O[C@@H](CC[C@@H]1O2)C[C@@H](C)C3=C`, the IC50 amounted to 0.19 nM in data set [1], 0.78 nM in data set [2], 0.38 nM with DLD-1 and 0.24 nM in the data set with HCT-15. In addition, the Activity result in data set [3] is recorded as “Non-toxic”. Moreover, the “Ratio IC50” value in data set [4] is reported as 4.08.

Take `C=C1C[C@@H]2CC[C@@]34C[C@H]5O[C@H]6[C@@H](O3)[C@H]3O[C@H](CC[C@@H]3O[C@H]6[C@H]5O4)CC(=O)C[C@@H]3[C@@H](OC)[C@@H](C[C@@H](COCC)OCC)O[C@H]3C[C@H]3O[C@@H](CC[C@@H]1O2)C[C@@H](C)C3=C`: the 50% inhibitory concentration (IC50) in data set [1] came to 0.54 nM; in data set [2], 2.38 nM; in the data set with DLD-1 it was 0.8 nM; in the data set with HCT-15 it was 0.55 nM. Also, the Activity result in data set [3] is reported as “Non-toxic”. The “Ratio IC50” value in data set [4] came to 4.4.

For `C=C1C[C@@H]2CC[C@@]34C[C@H]5O[C@H]6[C@@H](O3)[C@H]3O[C@H](CC[C@@H]3O[C@H]6[C@H]5O4)CC(=O)C[C@@H]3[C@@H](OC)[C@@H](C[C@H](O)CO)O[C@H]3C[C@H]3O[C@@H](CC[C@@H]1O2)C[C@@H](C)C3=C`, the IC50 turned out to be 0.03 nM in data set [1], 6.5 nM in data set [2], 0.54 nM in the data set on DLD-1 and 0.22 nM in the data set on HCT-15. In data set [3], the Activity entry was “Non-toxic”. Also, the “Ratio IC50” value in data set [4] amounted to 216.5.

Turning to `C=C1C[C@@H]2CC[C@@]34C[C@H]5O[C@H]6[C@@H](O3)[C@H]3O[C@H](CC[C@@H]3O[C@H]6[C@H]5O4)CC(=O)C[C@@H]3[C@@H](OC)[C@@H](CCC#N)O[C@H]3C[C@H]3O[C@@H](CC[C@@H]1O2)C[C@@H](C)C3=C`, the IC50 in data set [1] turned out to be 0.75 nM; in data set [2] it was 2.91 nM; in the data set on DLD-1, 1.43 nM; with HCT-15, 0.68 nM. Besides, in data set [3], the Activity entry is “Non-toxic”. Further, the “Ratio IC50” value in data set [4] is given as 3.88.

As to `CC(=O)O[C@H]1C(=O)[C@@]2(C)[C@H]([C@H](OC(=O)c3ccccc3)[C@]3(O)C[C@H](OC(=O)[C@H](O)[C@@H](NC(=O)c4ccccc4)c4ccccc4)C(C)=C1C3(C)C)[C@]1(OC(C)=O)CO[C@@H]1C[C@@H]2O` [PACLITAXEL], the IC50 in data set [1] was 2.96 nM; in data set [2], greater than 1000 nM. Also, the Activity entry in data set [3] is “Non-toxic”. In data set [4], the “Ratio IC50” value is given as greater than 338.

Take `C=C1C[C@@H]2CC[C@@]34C[C@H]5O[C@H]6[C@@H](O3)[C@H]3O[C@H](CC[C@@H]3O[C@H]6[C@H]5O4)CC(=O)C[C@@H]3[C@@H](OC)[C@@H](C[C@@H](CC#N)OC)O[C@H]3C[C@H]3O[C@@H](CC[C@@H]1O2)C[C@@H](C)C3=C`: the IC50 in data set [1] is 0.4 nM; in data set [2], 3.9 nM; in the data set with DLD-1, 1.05 nM; in the data set with HCT-15, 0.61 nM. The Activity result in data set [3] is on record as “Non-toxic”. For the same molecule, in data set [4], the “Ratio IC50” value amounted to 9.86.

Turning to `C=C1C[C@@H]2CC[C@@]34C[C@H]5O[C@H]6[C@@H](O3)[C@H]3O[C@H](CC[C@@H]3O[C@H]6[C@H]5O4)CC(=O)C[C@@H]3[C@@H](OC)[C@@H](CCCO)O[C@H]3C[C@H]3O[C@@H](CC[C@@H]1O2)C[C@@H](C)C3=C`, the IC50 in data set [1] came to 0.3 nM; in data set [2], 5.67 nM; with DLD-1, 0.47 nM; in the data set on HCT-15 it was 0.4 nM. In data set [3], the Activity result is listed as “Non-toxic”. Further, the “Ratio IC50” value in data set [4] came out at 18.88.

In the case of `C=C1C[C@@H]2CC[C@@]34C[C@H]5O[C@H]6[C@@H](O3)[C@H]3O[C@H](CC[C@@H]3O[C@H]6[C@H]5O4)CC(=O)C[C@@H]3[C@@H](OC)[C@@H](CC(=O)O)O[C@H]3C[C@H]3O[C@@H](CC[C@@H]1O2)C[C@@H](C)C3=C`, the IC50 turned out to be 12.4 nM in data set [1], 95.5 nM in data set [2], 17.6 nM in the data set with DLD-1 and 18.3 nM in the data set with HCT-15. Besides, the Activity entry in data set [3] is recorded as “Non-toxic”. The “Ratio IC50” value in data set [4] turned out to be 7.72.

Turning to `C#CC[C@H]1O[C@H]2C[C@H]3O[C@@H](CC[C@@H]4O[C@@H](CC[C@@]56C[C@H]7O[C@H]8[C@@H](O5)[C@H]5O[C@H](CC[C@@H]5O[C@H]8[C@H]7O6)CC(=O)C[C@@H]2[C@H]1OC)CC4=C)C[C@@H](C)C3=C`, the IC50 came out at 0.73 nM in data set [1], 2.01 nM in data set [2], 1.46 nM in the data set on DLD-1 and 0.83 nM in the data set with HCT-15. Also, in data set [3], the Activity result is “Non-toxic”. For the same molecule, in data set [4], the “Ratio IC50” value was determined as 2.75.

With `C=C1C[C@@H]2CC[C@@]34C[C@H]5O[C@H]6[C@@H](O3)[C@H]3O[C@H](CC[C@@H]3O[C@H]6[C@H]5O4)CC(=O)C[C@@H]3[C@@H](OC)[C@@H](C[C@H](O)COC(C)=O)O[C@H]3C[C@H]3O[C@@H](CC[C@@H]1O2)C[C@@H](C)C3=C`, the IC50 was determined as 0.11 nM in data set [1] and 3.47 nM in data set [2]. Moreover, in data set [3], the Activity entry is recorded as “Non-toxic”. The “Ratio IC50” value in data set [4] came to 33.

Regarding `CC[C@]1(O)C[C@@H]2CN(CCc3c([nH]c4ccccc34)[C@@](C(=O)OC)(c3cc4c(cc3OC)N(C)[C@H]3[C@@](O)(C(=O)OC)[C@H](OC(C)=O)[C@]5(CC)C=CCN6CC[C@]43[C@@H]65)C2)C1` [VINBLASTINE], the results for the 50% inhibitory concentration (IC50) (in data set [1]; in data set [2]; in the data set on HCT-15) were 2.28 nM, 440 nM and 28.5 nM, respectively. Also, in data set [3], the Activity entry was “Non-toxic”. Besides, the “Ratio IC50” value in data set [4] was 224.18.
